Measurements as given in patent US5128493A, “Platinum complexes” (Nippon Kayaku Kabushiki Kaisha, priority 1987, dated 1992).

Columns and labels:
[1] = test system: Mouse leukemia L1210 cells; assay: Growth inhibitory activity against cultured tumor cells, L1210; assay type: cell-based; details: Tumor cell L1210; RPMI 1640, 10% fetal calf serum
Experimental: (§1) Test of Growth Inhibitory Activity Against Various Kinds of Cultured Tumor Cells
(§2) Mouse leukemia L1210 cells were cultured in a RPMI 1640 medium containing 10% of fetal calf serum and mouse Lewis lung carcinoma (LL) cells were cultured in a RPMI 1640 medium containing 10% fetal calf serum and 100 μg/ml of Kanamycin.

[2] = test system: mouse Lewis lung carcinoma (LL) cells; assay: Growth inhibitory activity against cultured tumor cells, LL; assay type: cell-based; details: Tumor cell LL; RPMI 1640, 10% fetal calf serum, 100 μg/ml Kanamycin
Experimental: as §1, §2

Mouse Leukemia L1210 = assay: Antitumor activity against mouse leukemia L1210 in vivo; design: species or system mouse (female CDF1); details: i.p. once a day for 5 consecutive days; for max (T/C): L1210, mean survival time, at optimum dose; for Opt. dose: L1210, daily amount giving the max (T/C); for LD50: L1210-bearing female CDF1 mice
Experimental: Test of Antitumor Activity Against Mouse Leukemia L1210 in vivo
1×10^5 mouse leukemia L1210 cells were inoculated into the abdominal cavities of 6-week-old female CDF1 mice. From the next day, a compound was administered to them intraperitoneally once a day for 5 consecutive days. Mice of a compound-non-treated group (control group) were administered with physiological saline solution in the same manner. The mean survival time of the compound-treated group and the control group were measured and T/C was calculated from the equation (1): [formula]
In Table 4, max (T/C) means the maximum value of T/C and optimum dose (Opt. dose) means a daily administration amount giving the max (T/C), namely, an optimum daily administration amount.

[3] = test system: Mouse Lewis Lung Carcinoma; assay: Antitumor activity against mouse Lewis lung carcinoma in vivo; design: species or system mouse (male BDF1); details: i.p. once a day for 5 consecutive days; for max (T/C) / Opt. dose: Lewis lung carcinoma; for max (T/C): median survival time, at optimum dose; for Opt. dose: daily amount giving the max (T/C)
Experimental: Test of Antitumor Activity Against Mouse Lewis Lung Carcinoma
1×10^6 mouse Lewis lung carcinoma cells were inoculated into the abdominal cavities of 6-week-old male BDF1 mice. From the next day, a compound was administered to them intraperitoneally once a day for 5 consecutive days. Mice of compound-non-treated group (control group) were administered with physiological saline solution in the same manner. From the median survival time of the compoundtreated group and the control group, T/C was calculated according to the following equation (2): [formula]
In Table 5, max (T/C), and Opt. dose and LD50 mean the same ones in Table 4, respectively.

[4] = mouse, in vivo, ip
From the text: A compound was singly administered to 6-week-old male CDF1 mice intraperitoneally.

[5] = cis-Platin, prior art description; cited from earlier work
[6] = test system: cis-Platin resistant mouse leukemia L1210 cells; assay: Growth inhibitory activity against cis-Platin resistant tumor cells, L1210; assay type: cell-based; details: Tumor cell L1210; ratio of IC50 for cis-Platin resistant cells to IC50 for non-resistant cells
From the text: (§3) 1×10^5 mouse leukemia L1210 cells or 1×10^5 mouse leukemia P388 cells were inoculated into the abdominal cavities of CDF1 female mice. […] After 5 days, their tumor cells were inoculated to the abdominal cavities of other CDF1 female mice, and the same treatment was applied.

[7] = test system: cis-Platin resistant mouse leukemia P388 cells; assay: Growth inhibitory activity against cis-Platin resistant tumor cells, P388; assay type: cell-based; details: Tumor cell P388; ratio of IC50 for cis-Platin resistant cells to IC50 for non-resistant cells
From the text: as §3

Molecule	IC50 [1] [µg/mL]	IC50 [2] [µg/mL]	Solubility in water [mg/mL]	max (T/C) (Mouse Leukemia L1210)	Opt. dose (Mouse Leukemia L1210) [mg/kg]	max (T/C) [3]	LD50 ([3]; Lewis lung carcinoma-bearing male BDF1 mice) [mg/kg]	Opt. dose [3] [mg/kg]	LD50 (Mouse Leukemia L1210) [mg/kg]	Solubility in physiological saline solution (physiological saline) [mg/ml]	Body weight ratio [4]	dissolving in water (in words) [5]	IC50 R/IC50 [6]	IC50 R/IC50 [7]
cis-4-Oxacyclohexane-1,1-dicarboxylato-2,3-dimethyl-1,4-butanediamine Platinum [Compound No. 6]	0.11	1.06	> 20											
cis-Cyclobutane-1,1-dicarboxylato-2,3-dimethyl-1,4-butanediamine Platinum [Compound No. 4]	1.01	2.10		328	32.0	144	48.0	32.0						
cis-Dichloro-2,3-dimethyl-1,4-butanediamine Platinum [Compound No. 1]	0.04	0.43		323	2.0				3.0	> 2	0.79			
N.N.[Cl][Pt][Cl] [cis-Platin, cis-dichlorodiammineplatinum, reference compound]					4							dissolving in water slowly		
cis-Ethylmalonato-2,3-dimethyl-1,4-butanediamine Platinum [Compound No. 7]			> 20											
cis-Dimethylmalonato-2,3-dimethyl-1,4-butanediamine Platinum [Compound No. 5]	0.40	1.06	> 20	245	32.0						0.89		1.4	6.2
cis-Oxalato-2,3-dimethyl-1,4-butanediamine Platinum [Compound No. 2]	0.11	0.65	> 3	296	4.0				7.2		0.77			
cis-Diethylmalonato-2,3-dimethyl-1,4-butanediamine Platinum [Compound No. 8]			> 15											
cis-Malonato-2,3-dimethyl-1,4-butanediamine Platinum [Compound No. 3]	0.27	0.95	> 30	400	16.0	234		32.0			1.00		1.3	4.6
